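48-hour exposure; five concentrations; linearly interpolated endpoints. The concentration for full growth arrest is given as TGI.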
How the values were obtained:
Assay in all cases: NCI tumour cell line growth inhibition, 48 h
[1] = tested on: LOX IMVI melanoma
[2] = tested on: MOLT-4 leukemia
[3] = tested on: NCI-H226 lung
[4] = tested on: NCI-H522 lung
[5] = tested on: OVCAR-4 ovarian
[6] = tested on: RPMI-8226 leukemia
[7] = tested on: RXF 393 renal
[8] = tested on: SF-268 CNS
[9] = tested on: SN12C renal
[10] = tested on: SNB-19 CNS

| SMILES | TGI [1] [µM] | TGI [2] [µM] | TGI [3] [µM] | TGI [4] [µM] | TGI [5] [µM] | TGI [6] [µM] | TGI [7] [µM] | TGI [8] [µM] | TGI [9] [µM] | TGI [10] [µM] |
| --- | --- | --- | --- | --- | --- | --- | --- | --- | --- | --- |
| Cc1cc(C)c2c(=N)c3ccccc3n(CCCCCCO)c2n1 | 5.17 | 17.6 | 11.1 | 3.14 | 9.85 | 4.29 | 14.2 | 13.9 | 7.55 | 18.9 |
| COc1cc(/C=C2\Cc3cc(OC)c(OC)cc3C2=O)cc(OC)c1 | > 100 | > 100 | > 100 | > 100 | > 88.7 | > 100 | 57.1 | > 100 | > 100 | > 100 |
| Cn1c2c(c3ccccc31)CCN1C(=O)C3SC21C1C(=O)N(c2ccccc2)C(=O)C31 (stereo not given) | > 100 | > 100 | > 100 | > 100 | > 100 | > 100 | > 100 | > 100 | > 100 | > 100 |
| Cc1cc(O)ccc1C1(c2ccc(F)cc2)OC(=O)c2ccccc21 (stereo not given) | 6.65 | > 100 | 8.28 | 15.6 | 1.08 | > 62.1 | 3.33 | 39.7 | 8.23 | 15.4 |
| O=C(/C=C(\O)c1ccccc1)/C(=C/C(=O)c1ccccc1)NN=C(c1ccccc1)c1ccccc1 | > 100 | 52.5 | 72.7 | 63 | > 100 | > 100 | > 100 | > 100 | > 100 | > 100 |
| COc1cccc(NC(=O)CC(=O)NNCC(=O)Nc2nnc(-c3ccc(N(CCC#N)S(=O)(=O)c4ccccc4)cc3)s2)c1 | > 100 | > 100 | > 100 | > 100 | > 100 | > 100 | > 100 | > 100 | > 100 | > 100 |
| N#CC12C(=O)N3C(=NC(c4ccccc4)NC3c3ccccc3)C1(C#N)C(c1ccccc1)NC1=C2CCCC1 (stereo not given) | > 100 | > 100 | > 100 | > 100 | > 100 | > 100 | > 100 | > 100 | > 100 | > 100 |
| N=C(N)SCCCN | 13.6 | 3.16 | 66 | 25.5 | > 30.9 | > 68.9 | 26 | 79.2 | 69.8 | > 82.7 |
| COC1=CC(=O)c2c(O)c3c(c(O)c2C1=O)C[C@](C)(O)C[C@@H]3O | 10.1 | 31.4 | 45.6 | 12.4 | 13.1 | 40.2 | 17.3 | 32.8 | 13 | 14.7 |
| CC(NNC(=O)c1ccncc1)c1ccc(Cl)c(Cl)c1 (stereo not given) | > 100 | > 100 | > 100 | > 100 | > 100 | > 100 | > 100 | > 100 | > 100 | > 100 |
| O=C(O)c1cc(Cl)cc2c1NC1(N2)C(=O)Nc2ccccc21 (stereo not given) | > 100 | > 100 | > 100 | > 100 | > 100 | > 100 | > 100 | > 100 | > 100 | > 100 |
| CC(=O)CC(C)(C)NC(=O)[C@@]1(O)CC[C@H]2[C@@H]3CCC4=CC(=O)CC[C@@H]4[C@H]3CC[C@@]21C | > 100 | > 100 | > 100 | > 100 | > 100 | > 100 | > 100 | > 100 | > 100 | > 100 |
| CCOC(=O)c1c(N2CCOCC2)[nH]c(=O)c(C(c2cccs2)c2c(O)c(C(=O)OCC)c(N3CCOCC3)[nH]c2=O)c1O | > 100 | > 100 | > 100 | > 100 | > 100 | > 100 | > 100 | > 100 | > 100 | > 100 |
| O=c1[nH]c2cc3cccnc3c(Cl)c2nc1CBr | 31.1 | > 100 | 56.1 | 28.5 | 34.2 | 26.3 | 34.6 | 64.7 | 27 | 19.7 |
| CNC(=S)N/N=C(\C)c1nc2ncccc2[nH]1 | > 100 | > 100 | > 90.9 | > 73.3 | > 100 | > 100 | > 100 | > 100 | > 100 | > 100 |
| O=c1[nH]cnc2sc(=S)c3c(c12)CCC3 | > 100 | 41.2 | 72.7 | 41.8 | > 100 | 43 | 63.4 | > 100 | > 100 | > 100 |
| CSc1ncc2c(n1)-c1ccccc1OC2NC(C)(C)C (stereo not given) | > 100 | > 100 | > 100 | 74.5 | > 100 | > 100 | > 100 | > 100 | > 100 | > 100 |
| c1csc(-c2csc(-c3ccsc3)c2)c1 | > 100 | > 100 | > 100 | > 100 | > 100 | > 100 | > 100 | > 100 | > 100 | > 100 |
| CC1(C)CCCCCCCCCC(C)(CCCCCCCCCCCCO)C1=O (stereo not given) | 32.3 | 76.7 | 22.5 | 30.3 | 32.7 | 42.2 | 33.3 | 32 | 31.4 | 26.1 |

Reference: PubChem BioAssay (NCI)
